Data from article PMC3534050, “Simultaneous Single-Sample Determination of NMNAT Isozyme Activities in Mouse Tissues” (PLoS ONE, 2012).
Where two headings read alike, the source gives them in different places.

Tested on: T1, Wld^S
T1 construct: gene Nmnat1; full-length Wld^S ORF (1119 bp): N-terminal Ube4b fragment fused to NMNAT1; predicted mass 44001 Da; with Ubiquitin conjugation factor E4 B
Assay: C18-HPLC of NAD formed, nonlinear fit
Format: biochemical, Mus musculus
Conditions: HEPES/KOH pH 7.5, MgCl2, 37°C
Excerpt: C18-HPLC of NAD formed, nonlinear fit on Wld^S

Row | Km (read-out: ATP / K m, co-substrate NMN, ATP 25–175 µM) [µM] | Km (co-substrate ATP, NMN 5–100 µM, read-out: NMN / K m) [µM] | SMILES
1 | 29.6 ± 1.8 | – | Nc1ncnc2c1ncn2[C@@H]1O[C@H](COP(=O)(O)OP(=O)(O)OP(=O)(O)O)[C@@H](O)[C@H]1O [ATP]
2 | – | 32.2 ± 1.2 | NC(=O)c1ccc[n+]([C@@H]2O[C@H](COP(=O)(O)O)[C@@H](O)[C@H]2O)c1 [NMN]
